# Test results as given in patent US4317768A, “Dihydropyridine derivatives as stabilizers for vinyl chloride polymers” (priority 1977, dated 1982).
# Tests used:
# [1] = Static thermostability (GARDNER method), rigid PVC sheets, 185° C., equimolecular quantities; settings: 1.55×10^-3 mol
# Procedure: This study was carried out according to the GARDNER method, described in British Pat. No. 1,489,685.
# The reference substance was 2-phenyl-indole, a well-known and widely used stabilizer.
# The stabilizer (dihydropyridine or 2-phenyl-indole) and the other usual ingredients were mixed with powdered vinyl resins and the mixtures were calendered at a temperature of 160° C. to give rigid sheets.
# The sheets were then heated in a thermostated oven (185° C. or 210° C.) for different intervals of time until incipient carbonization.
# The coloration of the samples was compared to a standard scale of coloration, known as the GARDNER scale and was expressed in terms of the reference figures of the GARDNER scale.
# This study was carried out with the following resin:
# Polyvinyl chloride resin
# SL 2016 is a solution of zinc-2-ethyl-hexanoate in a mixture of hydrocarbons boiling between 158° C. and 184° C.
# Finally, a trail was performed at 185° C., with resins containing equimolecular quantities of the dihydropyridines or of 2-phenyl-indole, namely 1.55×10^-3 mol. In this case too, the samples were removed from the oven every 6 minutes over a period of 24 minutes and then every 3 minutes until the 42nd minute (or until carbonization).
# [2] = Photostabilizing power, tetrahydrofuran solution of plates exposed to the sun, French Pharmacopeia
# Procedure: The photostabilizing power of the compounds of the invention was studied by exposing to the sun polyvinyl chloride plates which had been stabilized either by a dihydropyridine of the invention or by 2-phenyl-indole, or again by 2-(3'-methoxy-4'-hydroxy)-indole. This last product is an extremely valuable thermostabilizer for thermoplastic resins and is described in British Pat. No. 1,489,685.
# The resin given hereunder was prepared by mixing on cylinders at 160° C.:
# The plates of stabilized polyvinyl chloride, together with a plate which had not been stabilized, were stood in the sun under the same conditions and at the same time. Their colour was measured after 6 hours and 12 hours of exposure.
# The coloration of the plates was determined according to two methods:
# On a solution of these plates in tetrahydrofuran, the coloration of th solution being measured according to the French Pharmacopeia (IXth edition, II-338).
# [3] = Antioxidant power on a polyvinyl chloride resin, Metrastat oven, 210° C.
# Procedure: By direct comparison, on a polyvinyl chloride resin, of the antioxidant power of Compound 1 of the invention and that of an antioxidant known as one of the most valuable and frequently used in polyvinyl chloride, namely 2,6-diterbutyl-4-methyl-phenol.
# The antioxidant power of Compound 1 was compared to that of 2,6-diterbutyl-4-methyl-phenol (Compound 2) by using the following resin:
# The same trials were carried out in a Metrastat oven at 210° C.
smiles,measurement,setting,value
"CC1=C(C(=O)OCc2ccccc2)CC(C(=O)OCc2ccccc2)=C(C)N1 [Compound 21, 2,6-Dimethyl-3,5-dicarbobenzyloxy-1,4-dihydropyridine]","coloration, GARDNER scale",[1]; 0 min,1
same,"coloration, GARDNER scale",[1]; 6 min,1
same,"coloration, GARDNER scale",[1]; 12 min,1
same,"coloration, GARDNER scale",[1]; 18 min,4
same,"coloration, GARDNER scale",[1]; 24 min,6
same,"coloration, GARDNER scale",[1]; 27 min,8
same,"coloration, GARDNER scale",[1]; 30 min,11
same,"coloration, GARDNER scale",[1]; 33 min,15
same,"coloration, GARDNER scale",[1]; 36 min,Burnt
same,Coloration of the plates FRENCH PHARMACOPEIA,[2]; exposure to sun 0,JV6
same,Coloration of the plates FRENCH PHARMACOPEIA,[2]; exposure to sun 6h,JV6
same,Coloration of the plates FRENCH PHARMACOPEIA,[2]; exposure to sun 12h,JV5
"C=CCOC(=O)C1=C(C)NC(C)=C(C(=O)OCC=C)C1 [Compound 1, 2,6-Dimethyl-3,5-dicarboallyloxy-1,4-dihydropyridine]",time of burning (B),[3]; 0.05 part,40 '
same,"coloration, GARDNER scale","[3]; 0.05 part, 0 to 10 min",1
same,"coloration, GARDNER scale","[3]; 0.05 part, 10 to 20 min",1
same,"coloration, GARDNER scale","[3]; 0.05 part, 20 to 25 min",1
same,"coloration, GARDNER scale","[3]; 0.05 part, 25 to 30 min",1
same,"coloration, GARDNER scale","[3]; 0.05 part, 35 to 40 min",> 10
same,time of burning (B),[3]; 0.1 part,38 '
same,"coloration, GARDNER scale","[3]; 0.1 part, 0 to 10 min",1
same,"coloration, GARDNER scale","[3]; 0.1 part, 10 to 20 min",1
same,"coloration, GARDNER scale","[3]; 0.1 part, 20 to 25 min",1
same,"coloration, GARDNER scale","[3]; 0.1 part, 25 to 30 min",1
same,"coloration, GARDNER scale","[3]; 0.1 part, 35 to 40 min",< 10
same,time of burning (B),[3]; 0.2 part,39 '
same,"coloration, GARDNER scale","[3]; 0.2 part, 0 to 10 min",1
same,"coloration, GARDNER scale","[3]; 0.2 part, 10 to 20 min",1
same,"coloration, GARDNER scale","[3]; 0.2 part, 20 to 25 min",1
same,"coloration, GARDNER scale","[3]; 0.2 part, 25 to 30 min",1
same,"coloration, GARDNER scale","[3]; 0.2 part, 35 to 40 min",< 9
same,time of burning (B),[3]; 0.3 part,39 '
same,"coloration, GARDNER scale","[3]; 0.3 part, 0 to 10 min",1
same,"coloration, GARDNER scale","[3]; 0.3 part, 10 to 20 min",1
same,"coloration, GARDNER scale","[3]; 0.3 part, 20 to 25 min",1
same,"coloration, GARDNER scale","[3]; 0.3 part, 25 to 30 min",1
same,"coloration, GARDNER scale","[3]; 0.3 part, 35 to 40 min",< 9
same,time of burning (B),[3]; 0.4 part,38 '
same,"coloration, GARDNER scale","[3]; 0.4 part, 0 to 10 min",1
same,"coloration, GARDNER scale","[3]; 0.4 part, 10 to 20 min",1
same,"coloration, GARDNER scale","[3]; 0.4 part, 20 to 25 min",1
same,"coloration, GARDNER scale","[3]; 0.4 part, 25 to 30 min",1
same,time of burning (B),[3]; 0.5 part,38 '
same,"coloration, GARDNER scale","[3]; 0.5 part, 0 to 10 min",1
same,"coloration, GARDNER scale","[3]; 0.5 part, 10 to 20 min",1
same,"coloration, GARDNER scale","[3]; 0.5 part, 20 to 25 min",1
same,"coloration, GARDNER scale","[3]; 0.5 part, 25 to 30 min",1
same,time of burning (B),[3]; 1.0 part,37 '
same,"coloration, GARDNER scale","[3]; 1.0 part, 0 to 10 min",1
same,"coloration, GARDNER scale","[3]; 1.0 part, 10 to 20 min",1
same,"coloration, GARDNER scale","[3]; 1.0 part, 20 to 25 min",1
same,"coloration, GARDNER scale","[3]; 1.0 part, 25 to 30 min",1
same,"antioxidant power, Compound 1 vs Compound Z, in words",[3]; 210° C.,markedly superior to Compound Z
